Source: PubChem BioAssay AID330 (DTP/NCI, 2004)
Inconclusive results and toxic doses are left out.

Test system: P388 leukemia ip, CD2F1 mice, survival T/C
Test: NCI In Vivo Anticancer Drug Screen. Data for tumor model P388 Leukemia (intraperitoneal) in CD2F1 (CDF1) mice
Settings: endpoint: median survival time, higher = longer survival
Procedure, shortened: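 Mice carrying the transplanted tumor received test compound or vehicle. Survival was recorded in each group, and the value is the treated-group measurement divided by that of the vehicle-treated control group.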

For `CCO[Si](CCSC(=O)N(CCCl)CCCl)(OCC)OCC`, the T/C (dose: 100.0 mg/kg/injection, schedule: Q04DX002 (ip), vehicle: saline with Tween-80) was 99 % of control, the T/C (dose: 200.0 mg/kg/injection, schedule: Q04DX002 (ip), vehicle: saline with Tween-80) was 98 % of control and the T/C (dose: 400.0 mg/kg/injection, schedule: Q04DX002 (ip), vehicle: saline with Tween-80) was 107 % of control.
For `COc1ccc2c(c1)C1(C)CC(OC1=O)C2=O` (stereo unspecified), the T/C (dose: 25.0 mg/kg/injection, schedule: Q01DX001 (ip), vehicle: Klucel (hydroxypropylcellulose) (HPC)) was 99 % of control, the T/C (dose: 50.0 mg/kg/injection, schedule: Q01DX001 (ip), vehicle: Klucel (hydroxypropylcellulose) (HPC)) was 100 % of control and the T/C (dose: 100.0 mg/kg/injection, schedule: Q01DX001 (ip), vehicle: Klucel (hydroxypropylcellulose) (HPC)) was 100 % of control.
`CCOC1(OCC)Cc2nc3ccccc3cc21` was tested, and the T/C (dose: 50.0 mg/kg/injection, schedule: Q01DX005 (ip), vehicle: saline + Tween-80 + alcohol) was 106 % of control, the T/C (dose: 100.0 mg/kg/injection, schedule: Q01DX005 (ip), vehicle: saline + Tween-80 + alcohol) was 109 % of control and the T/C (dose: 200.0 mg/kg/injection, schedule: Q01DX005 (ip), vehicle: saline + Tween-80 + alcohol) was 106 % of control.
For `Oc1ccc(CCNCc2ccc3c(c2)OCO3)cc1O`, the T/C (dose: 100.0 mg/kg/injection, schedule: Q04DX002 (ip), vehicle: Klucel (hydroxypropylcellulose) (HPC)) was 99 % of control and the T/C (dose: 200.0 mg/kg/injection, schedule: Q04DX002 (ip), vehicle: Klucel (hydroxypropylcellulose) (HPC)) was 94 % of control.
